We go through one compound from patent publication US20220162548A1, “PRODUCING ISOTHIOCYANATES FROM CALLUS SUSPENSION CULTURES” (PERPETUUM CROPSCIENCE BVBA, priority 2019, published 2022).

SMILES strings stand for the structures.

This experiment has as its system NON-GMO Impala F1 Cabbage (Brassica oleracea L. var. capitata) callus cultures. Kind of experiment: Elicitation of callus cultures, benzyl isothiocyanate accumulation and callus weight. It is filed as cell-based. Conditions: for Concentration of benzyl isothiocyanate / Dry weight / Fresh weight: four weeks of culture. The protocol: 10 g of calli (fresh weight/vessel) was transferred to the same medium composition in addition to different concentrations of chitosan (200, 400 and 600 mg/L) and salicylic acid (10, 20 and 40 mg/L) as biotic elicitors, in addition to the control treatment without elicitors. After calli was collected, the fresh and dry weights were determined. Dry weight was determined after drying the calli at 45° C. in an oven until a constant weight was obtained. Benzyl Isothiocyanate concentration was also recorded with each treatment. After four weeks of culture, data was documented.
To determine Benzyl Isothiocyanate content, high performance liquid chromatography (HPLC) was performed. The extraction of Benzyl Isothiocyanate was carried out from calli and cells from Erlenmeyer flask culture and single-use ReadyToProcess WAVE Cellbag bioreactor experiments. Samples were homogenized using a glass mortar and pestle (MilliporeSigma, Belgium) containing 70:30 (v:v) MeOH:sterilized water. Extracts were then transferred to glass stoppered Erlenmeyer flasks (DWK Life Sciences) and conditioned in a thermostatic bath (Fisherscientific, Belgium) under constant agitation. For 30 minutes the extraction was carried out at 70° C. and then filtered on Invitrolon PVDF membranes (Polyvinylidene Fluoride) ([…], ThermoFisher Scientific, Belgium) prior to HPLC injection.
Methanolic extracts of the samples were analyzed by HPLC for Benzyl Isothiocyanate concentration using an external standard. HPLC system (Ultimate 3000 Automated System, ThermoFisher Scientific, Belgium) was coupled with UV-Vis detector (UltiMate 3000 Multiple Wavelength Detector, ThermoFisher Scientific, Belgium) and vacuum degasser (UltiMate 3000 SRD-3400 HPLC Degasser, ThermoFisher Scientific, Belgium).
Sample injections of 20 μl were made by an autosampler (UltiMate 3000 WPS-3000 Autosampler, ThermoFisher Scientific, Belgium); the chromatographic separations were performed on C18 Reversed Phase LC columns (Accucore C18 LC Columns, ThermoFisher Scientific, Belgium). Column temperature was maintained at 30° C. and detection wavelength was 253 nm. Optimum efficiency of separation was obtained using methanol (solvent A), and acetonitrile (solvent B) (HPLC grade, Sigma Aldrich, Belgium). The flow rate was 1 ml/minute. The running time for each analysis was 60 minutes, and 10 minutes were required for column cleaning and equilibrium.
The Benzyl Isothiocyanate concentration of the injected samples was calculated as μg/g fresh weight of sample.
Experiments were conducted in a completely randomized design with at least 30 replicates per treatment for the calli experiment and 4 replicates for the cell suspension culture experiments. Data were subjected to statistical analysis by Analysis of Variance (Anova) programme using Duncan's multiple range test as modified by Snedecor and Cochran. Values marked with different letters were considered to be statistically different at p<0.04.

On to `O=C(O)c1ccccc1O` [Salicylic acid], for which, where the note is “salicylic acid 10 mg/L”, the “increase in Benzyl Isothiocyanate accumulation over the control treatment” value is listed as 1.7 times, the “Concentration of benzyl isothiocyanate” value is reported as 2.174 μg/g fresh weight, the Dry weight turned out to be 4.807 g and the Fresh weight stood at 5.985 g. Besides, for the setting “salicylic acid 20 mg/L”, the “Concentration of benzyl isothiocyanate” value was found to be 2.039 μg/g fresh weight, the Dry weight came out at 4.424 g and the Fresh weight was found to be 4.981 g. Moreover, for the setting “salicylic acid 40 mg/L”, the “Concentration of benzyl isothiocyanate” value amounted to 1.956 μg/g fresh weight, the Dry weight is 5.107 g and the Fresh weight is recorded as 5.509 g.
